According to PubChem BioAssay AID1963965 (Molecular Pharmacology Branch, DTP, NCI, 2024):
“And” between values parts separate entries of the source, which are not always exact repeats. Equal values may be shown once.

System: 996289-038-R-J1-PDC spheroid viability
Assay: Anticancer human tumor 996289-038-R-J1-PDC patient-derived colon adenocarcinoma cell line growth inhibition [PI3K]
Details: spheroids with HUVEC and MSC; for viability, T/C: stronger effect = lower value
In short: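 Targeted small molecules plus PI3K inhibitors, half-log dose series from Cmax (default top 10 microM), were applied to heterotypic spheroids of cancer cells with HUVEC and MSCs. Viability indicated growth inhibition.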

[1] = curve of first compound, second compound 0.0316 µM
[2] = curve of first compound, second compound 0.1 µM
[3] = curve of first compound, second compound 0.316 µM
[4] = curve of first compound, second compound 1 µM
[5] = curve of first compound, second compound 3.16 µM
[6] = curve of first compound, second compound 10 µM
[7] = second compound 0.0316 µM, first compound 0.0316 µM
[8] = second compound 0.0316 µM, first compound 0.1 µM
[9] = second compound 0.0316 µM, first compound 0.316 µM
[10] = second compound 0.0316 µM, first compound 1 µM
[11] = second compound 0.0316 µM, first compound 3.16 µM
[12] = second compound 0.0316 µM, first compound 10 µM
[13] = second compound 0.1 µM, first compound 0.0316 µM
[14] = second compound 0.1 µM, first compound 0.1 µM
[15] = second compound 0.1 µM, first compound 0.316 µM
[16] = second compound 0.1 µM, first compound 1 µM
[17] = second compound 0.1 µM, first compound 3.16 µM
[18] = second compound 0.1 µM, first compound 10 µM
[19] = second compound 0.316 µM, first compound 0.0316 µM
[20] = second compound 0.316 µM, first compound 0.1 µM
[21] = second compound 0.316 µM, first compound 0.316 µM
[22] = second compound 0.316 µM, first compound 1 µM
[23] = second compound 0.316 µM, first compound 3.16 µM
[24] = second compound 0.316 µM, first compound 10 µM
[25] = second compound 1 µM, first compound 0.0316 µM
[26] = second compound 1 µM, first compound 0.1 µM
[27] = second compound 1 µM, first compound 0.316 µM
[28] = second compound 1 µM, first compound 1 µM
[29] = second compound 1 µM, first compound 3.16 µM
[30] = second compound 1 µM, first compound 10 µM
[31] = second compound 3.16 µM, first compound 0.0316 µM
[32] = second compound 3.16 µM, first compound 0.1 µM
[33] = second compound 3.16 µM, first compound 0.316 µM
[34] = second compound 3.16 µM, first compound 1 µM
[35] = second compound 3.16 µM, first compound 3.16 µM
[36] = second compound 3.16 µM, first compound 10 µM
[37] = second compound 10 µM, first compound 0.0316 µM
[38] = second compound 10 µM, first compound 0.1 µM
[39] = second compound 10 µM, first compound 0.316 µM
[40] = second compound 10 µM, first compound 1 µM
[41] = second compound 10 µM, first compound 3.16 µM
[42] = second compound 10 µM, first compound 10 µM
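Further: spheroids exposed to compounds for seven days before viability read.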
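Wherever viability, T/C is given: luminescence used as a proxy for viable cell amount; percent viability relative to DMSO vehicle control as 100%.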

`C=CC(=O)N1CCN(c2nc(=O)n(-c3c(C)ccnc3C(C)C)c3nc(-c4c(O)cccc4F)c(F)cc23)C(C)C1` (centres undefined) + CC(Nc1ncnc2nc[nH]c12)c1cc2cccc(Cl)c2c(=O)n1-c1ccccc1 was tested. Which IC50 [1] did it give?
The IC50 was over 10 µM.

What about the IC50 [2] of the same molecule?
The IC50 was over 10 µM.

And the IC50 [3]?
Its IC50 is over 10 µM.

And the IC50 [4]?
The IC50 was over 10 µM.

And the IC50 [5]?
The IC50 was over 10 µM.

What about the IC50 [6] of the same molecule?
The IC50 was over 10 µM.

And the viability, T/C [7]?
Its viability, T/C is 101%.

What about the viability, T/C [8] of the same molecule?
Its viability, T/C is 97.8%.

What about the viability, T/C [9] of the same molecule?
Its viability, T/C is 91.2%.

What about the viability, T/C [10] of the same molecule?
Its viability, T/C is 100%.

And the viability, T/C [11]?
The viability, T/C was 107%.

What about the viability, T/C [12] of the same molecule?
Its viability, T/C is 106%.

What about the viability, T/C [13] of the same molecule?
The viability, T/C was 113%.

And the viability, T/C [14]?
The viability, T/C was 93.1%.

And the viability, T/C [15]?
The viability, T/C was 98.1%.

And the viability, T/C [16]?
The viability, T/C was 106%.

And the viability, T/C [17]?
The viability, T/C was 120%.

What about the viability, T/C [18] of the same molecule?
Its viability, T/C is 97%.

What about the viability, T/C [19] of the same molecule?
Its viability, T/C is 95.1%.

What about the viability, T/C [20] of the same molecule?
The viability, T/C was 106%.

What about the viability, T/C [21] of the same molecule?
The viability, T/C was 107%.

And the viability, T/C [22]?
Its viability, T/C is 107%.

What about the viability, T/C [23] of the same molecule?
The viability, T/C was 105%.

What about the viability, T/C [24] of the same molecule?
Its viability, T/C is 105%.

What about the viability, T/C [25] of the same molecule?
The viability, T/C was 93.8%.

And the viability, T/C [26]?
Its viability, T/C is 88.3%.

And the viability, T/C [27]?
The viability, T/C was 101%.

What about the viability, T/C [28] of the same molecule?
Its viability, T/C is 98.6%.

What about the viability, T/C [29] of the same molecule?
The viability, T/C was 112%.

What about the viability, T/C [30] of the same molecule?
Its viability, T/C is 99.6%.

And the viability, T/C [31]?
The viability, T/C was 97.2%.

What about the viability, T/C [32] of the same molecule?
The viability, T/C was 101%.

And the viability, T/C [33]?
Its viability, T/C is 88.3%.

And the viability, T/C [34]?
Its viability, T/C is 101%.

What about the viability, T/C [35] of the same molecule?
The viability, T/C was 118%.

What about the viability, T/C [36] of the same molecule?
Its viability, T/C is 107%.

And the viability, T/C [37]?
The viability, T/C was 103%.

What about the viability, T/C [38] of the same molecule?
The viability, T/C was 88.4%.

And the viability, T/C [39]?
The viability, T/C was 90.7%.

And the viability, T/C [40]?
The viability, T/C was 97.9%.

And the viability, T/C [41]?
Its viability, T/C is 105%.

And the viability, T/C [42]?
Its viability, T/C is 95.9%.

What does the source list for `CC1(C)CCC(Nc2ncc(C(F)(F)F)c(-c3c[nH]c4c(P(C)(C)=O)c(C#N)ccc34)n2)CN1` (centres undefined) + CC(Nc1ncnc2nc[nH]c12)c1cc2cccc(Cl)c2c(=O)n1-c1ccccc1?
IC50 [1]: 6.14 µM; IC50 [2]: 5.51 µM; IC50 [3]: 5.94 µM; IC50 [4]: 5.43 µM; IC50 [5]: 5.26 µM; IC50 [6]: 4.66 µM; viability, T/C [7]: 95.8%; viability, T/C [8]: 84.5%; viability, T/C [9]: 85.2%; viability, T/C [10]: 77.9%; viability, T/C [11]: 84%; viability, T/C [12]: 25%; viability, T/C [13]: 88.9%; viability, T/C [14]: 87.3%; viability, T/C [15]: 77.9%; viability, T/C [16]: 75.4%; viability, T/C [17]: 78.1%; viability, T/C [18]: 20.1%; viability, T/C [19]: 95.7%; viability, T/C [20]: 83.8%; viability, T/C [21]: 85.8%; viability, T/C [22]: 77.9%; viability, T/C [23]: 87.8%; viability, T/C [24]: 19.9%; viability, T/C [25]: 88.6%; viability, T/C [26]: 86.1%; viability, T/C [27]: 72.8%; viability, T/C [28]: 72.3%; viability, T/C [29]: 80.3%; viability, T/C [30]: 16%; viability, T/C [31]: 82.6%; viability, T/C [32]: 81.3%; viability, T/C [33]: 74.2%; viability, T/C [34]: 74.4%; viability, T/C [35]: 79.2%; viability, T/C [36]: 14.2%; viability, T/C [37]: 90.9%; viability, T/C [38]: 74.5%; viability, T/C [39]: 58.3%; viability, T/C [40]: 70.3%; viability, T/C [41]: 69.8%; viability, T/C [42]: 10.9%

Which viability, T/C (compound 0.001 µM) does the source give for `Cn1ncnc1[C@H]1c2n[nH]c(=O)c3cc(F)cc(c23)N[C@@H]1c1ccc(F)cc1` here?
Its viability, T/C is 105% [middle of 4 runs].

And the viability, T/C (compound 0.00316 µM)?
The viability, T/C was 103% [middle of 4 runs].

And the viability, T/C (compound 0.01 µM)?
The viability, T/C was 100% [middle of 4 runs].

And the viability, T/C (compound 0.0316 µM)?
Its viability, T/C is 109% [middle of 4 runs].

And the viability, T/C (compound 0.1 µM)?
Its viability, T/C is 98.9% [middle of 4 runs].

What about the IC50 (curve of compound) of the same molecule?
The IC50 was over 0.1 µM.

Which viability, T/C (compound 0.0316 µM) does the source give for `CNC(=O)c1ccc(N2C(=S)N(c3ccc(C#N)c(C(F)(F)F)c3)C(=O)C2(C)C)cc1F` here?
Its viability, T/C is 111% and 106% (2×) and 100%.

And the viability, T/C (compound 0.1 µM)?
The viability, T/C was 97% [middle of 4 runs].

What about the viability, T/C (compound 0.316 µM) of the same molecule?
Its viability, T/C is 111% [middle of 4 runs].

What about the viability, T/C (compound 1 µM) of the same molecule?
The viability, T/C was 113% [middle of 4 runs].

And the IC50 (curve of compound)?
Its IC50 is over 10 µM.

Which results are given for `CC(C)n1nc(-c2ccc3oc(N)nc3c2)c2c(N)ncnc21`?
viability, T/C (compound 0.000316 µM): 105% [middle of 4 runs]; viability, T/C (compound 0.001 µM): 85.2% [middle of 4 runs]; viability, T/C (compound 0.00316 µM): 89.4% [middle of 4 runs]; viability, T/C (compound 0.01 µM): 88.6% [middle of 4 runs]; viability, T/C (compound 0.0316 µM): 67% [middle of 4 runs]; viability, T/C (compound 0.1 µM): 35.7% [middle of 4 runs]; IC50 (curve of compound): 58.6 nM [middle of 4 runs]

Which results are given for `C#Cc1c(F)ccc2cc(O)cc(-c3ncc4c(N5CC6CCC(C5)N6)nc(OCC56CCCN5CC(F)C6)nc4c3F)c12` (centres undefined) + CC(Nc1ncnc2nc[nH]c12)c1cc2cccc(Cl)c2c(=O)n1-c1ccccc1?
IC50 [1]: 1.16 µM; IC50 [2]: 1.51 µM; IC50 [3]: 1.43 µM; IC50 [4]: 1.04 µM; IC50 [5]: 0.681 µM; IC50 [6]: 0.372 µM; viability, T/C [7]: 101%; viability, T/C [8]: 96.6%; viability, T/C [9]: 69.7%; viability, T/C [10]: 52%; viability, T/C [11]: 45.6%; viability, T/C [12]: 37.2%; viability, T/C [13]: 90.4%; viability, T/C [14]: 76.2%; viability, T/C [15]: 60.6%; viability, T/C [16]: 55.3%; viability, T/C [17]: 46.8%; viability, T/C [18]: 33%; viability, T/C [19]: 95.9%; viability, T/C [20]: 81.8%; viability, T/C [21]: 71.2%; viability, T/C [22]: 54%; viability, T/C [23]: 40%; viability, T/C [24]: 33.7%; viability, T/C [25]: 99.3%; viability, T/C [26]: 79%; viability, T/C [27]: 59.8%; viability, T/C [28]: 57.5%; viability, T/C [29]: 35.6%; viability, T/C [30]: 32.8%; viability, T/C [31]: 92.3%; viability, T/C [32]: 81.6%; viability, T/C [33]: 63.2%; viability, T/C [34]: 42.6%; viability, T/C [35]: 34.1%; viability, T/C [36]: 27.6%; viability, T/C [37]: 78.9%; viability, T/C [38]: 74%; viability, T/C [39]: 47.8%; viability, T/C [40]: 37.9%; viability, T/C [41]: 29.5%; viability, T/C [42]: 20.9%
